Experimental data taken from ChEMBL document CHEMBL5291721, “A preclinical secondary pharmacology resource illuminates target-adverse drug reaction associations of marketed drugs” (Nat Commun, 2023).

What was measured:
[1] = molecular target: cGMP-inhibited 3',5'-cyclic phosphodiesterase 3A (Homo sapiens, UniProt Q14432); type: functional
[2] = molecular target: T1, Adenosine receptor A1 (Homo sapiens, UniProt P30542)
T1 sequence (P30542 whole entry): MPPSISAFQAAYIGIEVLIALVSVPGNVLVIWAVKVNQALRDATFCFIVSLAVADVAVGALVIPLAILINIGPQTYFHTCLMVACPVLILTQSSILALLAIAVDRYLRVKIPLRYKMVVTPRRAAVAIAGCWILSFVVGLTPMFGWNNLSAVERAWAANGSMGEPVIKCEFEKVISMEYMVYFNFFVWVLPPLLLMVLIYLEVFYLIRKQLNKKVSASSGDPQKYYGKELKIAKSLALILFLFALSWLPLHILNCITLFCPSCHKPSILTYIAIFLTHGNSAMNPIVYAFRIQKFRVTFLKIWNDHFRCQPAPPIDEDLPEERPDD

[3] = molecular target: Gamma-aminobutyric acid receptor subunit alpha-1 (Rattus norvegicus, UniProt P62813); type: functional
[4] = molecular target: T2, Equilibrative nucleoside transporter 1 (Homo sapiens, UniProt Q99808)
T2 sequence (Q99808 whole entry): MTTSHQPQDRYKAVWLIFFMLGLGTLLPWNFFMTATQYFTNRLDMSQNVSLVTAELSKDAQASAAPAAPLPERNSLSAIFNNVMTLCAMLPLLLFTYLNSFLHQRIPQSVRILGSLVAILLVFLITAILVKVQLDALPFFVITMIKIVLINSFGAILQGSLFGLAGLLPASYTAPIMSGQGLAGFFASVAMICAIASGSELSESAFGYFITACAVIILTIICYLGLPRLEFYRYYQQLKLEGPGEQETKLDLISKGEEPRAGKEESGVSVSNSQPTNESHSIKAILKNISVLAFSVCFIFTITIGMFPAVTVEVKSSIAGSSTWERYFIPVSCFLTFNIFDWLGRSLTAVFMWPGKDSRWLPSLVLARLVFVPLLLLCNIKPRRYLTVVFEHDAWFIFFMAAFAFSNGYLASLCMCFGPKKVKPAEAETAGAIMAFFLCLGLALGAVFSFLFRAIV

[5] = molecular target: T3, Prostaglandin G/H synthase 1 (Rattus norvegicus, UniProt Q63921); type: functional
T3 sequence (Q63921 whole entry): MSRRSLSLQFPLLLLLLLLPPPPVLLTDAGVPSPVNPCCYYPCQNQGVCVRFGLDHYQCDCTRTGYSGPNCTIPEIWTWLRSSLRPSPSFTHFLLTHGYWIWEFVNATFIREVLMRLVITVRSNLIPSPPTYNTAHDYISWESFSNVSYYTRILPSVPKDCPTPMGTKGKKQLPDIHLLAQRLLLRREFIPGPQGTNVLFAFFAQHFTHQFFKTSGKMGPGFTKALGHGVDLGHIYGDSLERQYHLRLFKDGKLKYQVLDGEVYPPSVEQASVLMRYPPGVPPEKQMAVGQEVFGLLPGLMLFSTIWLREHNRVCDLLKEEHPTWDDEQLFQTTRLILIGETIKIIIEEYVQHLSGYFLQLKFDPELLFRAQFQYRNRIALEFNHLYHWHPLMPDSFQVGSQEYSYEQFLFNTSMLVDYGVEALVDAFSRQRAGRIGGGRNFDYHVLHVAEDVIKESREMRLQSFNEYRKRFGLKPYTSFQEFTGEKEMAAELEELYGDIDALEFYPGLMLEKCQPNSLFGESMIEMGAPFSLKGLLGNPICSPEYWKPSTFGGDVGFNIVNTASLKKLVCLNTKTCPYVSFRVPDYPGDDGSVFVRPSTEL

[6] = molecular target: 3',5'-cyclic-AMP phosphodiesterase 4D (Homo sapiens, UniProt Q08499); type: functional
[7] = molecular target: T4, Alpha-2C adrenergic receptor (Homo sapiens, UniProt P18825); type: functional
T4 sequence (P18825 whole entry): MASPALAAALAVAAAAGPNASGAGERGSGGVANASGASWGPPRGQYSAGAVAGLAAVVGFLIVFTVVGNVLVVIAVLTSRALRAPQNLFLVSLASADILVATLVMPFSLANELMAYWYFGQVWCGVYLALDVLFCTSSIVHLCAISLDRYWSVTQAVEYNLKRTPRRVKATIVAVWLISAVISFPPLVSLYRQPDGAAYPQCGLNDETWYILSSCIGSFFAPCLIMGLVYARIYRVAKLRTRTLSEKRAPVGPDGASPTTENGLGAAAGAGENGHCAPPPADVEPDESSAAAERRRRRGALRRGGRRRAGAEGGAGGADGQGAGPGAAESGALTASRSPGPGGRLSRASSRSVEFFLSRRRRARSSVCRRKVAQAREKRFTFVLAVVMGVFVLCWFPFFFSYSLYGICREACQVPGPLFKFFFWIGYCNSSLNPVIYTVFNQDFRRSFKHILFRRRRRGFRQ

[8] = molecular target: T5, Alpha-2A adrenergic receptor (Homo sapiens, UniProt P08913); type: functional, cell-based
T5 sequence (P08913 whole entry): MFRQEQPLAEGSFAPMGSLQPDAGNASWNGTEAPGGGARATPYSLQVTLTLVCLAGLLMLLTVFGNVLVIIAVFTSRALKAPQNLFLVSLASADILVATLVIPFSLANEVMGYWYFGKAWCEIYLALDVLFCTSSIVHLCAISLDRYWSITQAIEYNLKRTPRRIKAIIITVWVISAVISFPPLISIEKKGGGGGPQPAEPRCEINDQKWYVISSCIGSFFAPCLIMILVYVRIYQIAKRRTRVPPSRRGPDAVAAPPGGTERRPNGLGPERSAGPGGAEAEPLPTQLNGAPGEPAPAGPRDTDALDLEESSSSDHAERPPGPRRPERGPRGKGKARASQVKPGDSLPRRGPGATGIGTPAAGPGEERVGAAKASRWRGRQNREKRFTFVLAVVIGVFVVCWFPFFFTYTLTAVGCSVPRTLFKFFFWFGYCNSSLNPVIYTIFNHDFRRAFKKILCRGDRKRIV

[9] = molecular target: 5-hydroxytryptamine receptor 2B (Homo sapiens, UniProt P41595); type: functional, cell-based
Note: assay procedure not described here.

3',5'-cyclic-AMP phosphodiesterase 4D, sequence (Q08499 whole entry): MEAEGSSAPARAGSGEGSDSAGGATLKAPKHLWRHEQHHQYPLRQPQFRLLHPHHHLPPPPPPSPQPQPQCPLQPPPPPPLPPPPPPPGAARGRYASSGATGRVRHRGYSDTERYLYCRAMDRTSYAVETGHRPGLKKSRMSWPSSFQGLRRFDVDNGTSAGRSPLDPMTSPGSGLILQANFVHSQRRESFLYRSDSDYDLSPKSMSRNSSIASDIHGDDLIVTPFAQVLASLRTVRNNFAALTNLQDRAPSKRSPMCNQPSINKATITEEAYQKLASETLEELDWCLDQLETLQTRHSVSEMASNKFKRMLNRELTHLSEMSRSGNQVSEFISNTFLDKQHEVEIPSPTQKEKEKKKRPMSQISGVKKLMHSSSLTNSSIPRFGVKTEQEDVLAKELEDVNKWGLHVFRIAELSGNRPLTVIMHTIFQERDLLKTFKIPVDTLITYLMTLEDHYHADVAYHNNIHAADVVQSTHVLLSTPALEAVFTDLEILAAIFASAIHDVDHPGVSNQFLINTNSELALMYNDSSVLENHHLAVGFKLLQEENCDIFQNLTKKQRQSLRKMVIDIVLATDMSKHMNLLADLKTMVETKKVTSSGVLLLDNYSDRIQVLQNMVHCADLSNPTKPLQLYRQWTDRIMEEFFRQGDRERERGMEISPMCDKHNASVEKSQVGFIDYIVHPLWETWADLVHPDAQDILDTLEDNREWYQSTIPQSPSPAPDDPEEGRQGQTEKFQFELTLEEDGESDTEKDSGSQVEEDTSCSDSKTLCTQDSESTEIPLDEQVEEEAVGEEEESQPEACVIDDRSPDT
Gamma-aminobutyric acid receptor subunit alpha-1, sequence (P62813 whole entry): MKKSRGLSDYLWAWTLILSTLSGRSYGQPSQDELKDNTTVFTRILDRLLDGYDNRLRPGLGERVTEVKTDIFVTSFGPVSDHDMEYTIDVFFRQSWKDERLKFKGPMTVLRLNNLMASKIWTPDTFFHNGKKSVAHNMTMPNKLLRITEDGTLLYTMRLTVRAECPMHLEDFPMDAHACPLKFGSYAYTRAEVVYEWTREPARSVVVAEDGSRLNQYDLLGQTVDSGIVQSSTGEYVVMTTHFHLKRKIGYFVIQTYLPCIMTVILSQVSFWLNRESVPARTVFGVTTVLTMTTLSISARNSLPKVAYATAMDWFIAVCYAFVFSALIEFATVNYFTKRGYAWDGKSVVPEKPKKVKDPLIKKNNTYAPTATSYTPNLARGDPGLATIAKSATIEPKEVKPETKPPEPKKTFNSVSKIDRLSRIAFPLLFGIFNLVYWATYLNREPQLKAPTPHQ
5-hydroxytryptamine receptor 2B, sequence (P41595 whole entry): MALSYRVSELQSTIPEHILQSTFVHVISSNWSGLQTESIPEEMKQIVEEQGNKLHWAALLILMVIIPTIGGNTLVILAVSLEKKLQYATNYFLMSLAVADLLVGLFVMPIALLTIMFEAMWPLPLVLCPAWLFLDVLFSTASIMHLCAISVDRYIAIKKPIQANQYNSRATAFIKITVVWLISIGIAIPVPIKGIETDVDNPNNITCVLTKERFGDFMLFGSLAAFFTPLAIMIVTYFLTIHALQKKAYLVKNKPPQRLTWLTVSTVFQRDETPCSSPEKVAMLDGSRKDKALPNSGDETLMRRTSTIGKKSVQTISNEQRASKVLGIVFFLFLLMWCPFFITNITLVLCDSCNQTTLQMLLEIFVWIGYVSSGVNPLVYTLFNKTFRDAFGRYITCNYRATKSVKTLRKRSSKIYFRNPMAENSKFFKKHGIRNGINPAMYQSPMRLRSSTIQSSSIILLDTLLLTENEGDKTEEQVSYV
cGMP-inhibited 3',5'-cyclic phosphodiesterase 3A, sequence (Q14432 whole entry): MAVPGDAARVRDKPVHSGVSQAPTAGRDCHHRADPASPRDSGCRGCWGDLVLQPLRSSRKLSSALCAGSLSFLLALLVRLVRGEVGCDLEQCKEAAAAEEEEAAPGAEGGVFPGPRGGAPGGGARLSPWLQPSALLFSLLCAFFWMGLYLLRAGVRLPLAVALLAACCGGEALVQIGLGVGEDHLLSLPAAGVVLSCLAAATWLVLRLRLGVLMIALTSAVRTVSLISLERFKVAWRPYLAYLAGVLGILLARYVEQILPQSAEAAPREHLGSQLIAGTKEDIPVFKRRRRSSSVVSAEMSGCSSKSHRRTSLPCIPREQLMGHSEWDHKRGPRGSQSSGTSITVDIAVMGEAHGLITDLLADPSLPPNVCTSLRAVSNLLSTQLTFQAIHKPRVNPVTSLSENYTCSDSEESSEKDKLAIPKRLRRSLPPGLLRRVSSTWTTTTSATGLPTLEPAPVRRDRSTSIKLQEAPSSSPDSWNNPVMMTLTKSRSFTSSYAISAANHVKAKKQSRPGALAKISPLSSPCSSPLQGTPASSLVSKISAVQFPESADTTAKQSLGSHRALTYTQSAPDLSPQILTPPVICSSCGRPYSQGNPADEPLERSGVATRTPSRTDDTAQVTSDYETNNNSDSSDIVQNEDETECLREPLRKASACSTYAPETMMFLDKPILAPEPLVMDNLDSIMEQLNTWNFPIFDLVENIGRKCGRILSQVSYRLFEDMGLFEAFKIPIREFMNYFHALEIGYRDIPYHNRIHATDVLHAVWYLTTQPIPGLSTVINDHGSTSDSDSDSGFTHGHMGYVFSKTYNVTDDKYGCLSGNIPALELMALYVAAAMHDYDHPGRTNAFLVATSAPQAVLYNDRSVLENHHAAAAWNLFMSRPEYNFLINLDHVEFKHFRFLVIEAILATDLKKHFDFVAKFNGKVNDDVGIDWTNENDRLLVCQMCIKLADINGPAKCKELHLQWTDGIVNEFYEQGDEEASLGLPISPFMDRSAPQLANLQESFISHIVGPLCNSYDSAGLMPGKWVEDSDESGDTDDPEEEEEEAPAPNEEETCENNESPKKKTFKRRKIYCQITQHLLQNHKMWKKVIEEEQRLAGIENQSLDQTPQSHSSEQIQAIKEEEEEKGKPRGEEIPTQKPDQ

Row | Structure (SMILES) | AC50 [1] [µM] | AC50 [2] [µM] | AC50 [3] [µM] | AC50 [4] [µM] | AC50 [5] [µM] | AC50 [6] [µM] | AC50 [7] [µM] | AC50 [8] [µM] | AC50 [9] [µM]
1 | CN(C)CCc1c[nH]c2ccc(CS(=O)(=O)N3CCCC3)cc12 [ALMOTRIPTAN] | > 30 | > 30 | > 30 | > 30 | > 30 | > 30 | > 30 | > 30 | 11
2 | NCCCCCC(=O)O [AMINOCAPROIC ACID] | > 30 | > 10 | > 10 | > 30 | > 10 | > 30 | > 10 | > 10 | > 10
3 | Cn1cnc2c(F)c(Nc3ccc(Br)cc3F)c(C(=O)NOCCO)cc21 [BINIMETINIB] | > 30 | > 30 | > 30 | > 30 | > 30 | > 30 | > 30 | > 30 | > 30
4 | CC(C)C[C@H](NC(=O)[C@H](Cc1ccccc1)NC(=O)c1cnccn1)B(O)O [BORTEZOMIB] | > 30 | > 30 | > 30 | > 30 | > 30 | > 30 | > 30 | > 30 | > 30
5 | C[C@H](CS)C(=O)N1CCC[C@H]1C(=O)O [CAPTOPRIL] | > 30 | > 30 | > 10 | > 30 | > 30 | > 30 | > 10 | > 10 | > 10
6 | CN(C)CCOC(c1ccc(Cl)cc1)c1ccccn1 (stereo unspecified) [CARBINOXAMINE] | > 30 | > 30 | > 30 | > 30 | > 30 | > 30 | > 30 | > 30 | > 30
7 | CCN(CC)CCn1c(=O)c(Cc2ccc(OC)cc2)nc2ccccc21 [CAROVERINE] | > 30 | > 30 | 19 | > 30 | 15.8 | 7.11 | 21.5 | > 30 | > 30
8 | C[C@H](CCC(=O)O)[C@H]1CC[C@H]2[C@@H]3[C@H](O)C[C@@H]4C[C@H](O)CC[C@]4(C)[C@H]3CC[C@]12C [CHENODIOL] | > 30 | > 30 | > 30 | > 30 | > 30 | > 30 | > 30 | 3 | > 30
9 | CN(C)CCCC1(c2ccc(F)cc2)OCc2cc(C#N)ccc21 (stereo unspecified) [CITALOPRAM] | > 30 | > 30 | > 10 | > 30 | > 30 | > 30 | > 10 | > 10 | > 30
10 | O=C(O)[C@H]1/C(=C/CO)O[C@@H]2CC(=O)N21 [CLAVULANIC ACID] | > 30 | > 30 | > 30 | > 30 | > 30 | > 30 | > 30 | > 30 | > 30
11 | C[C@H](Nc1ncnc2[nH]cnc12)c1cc2cccc(Cl)c2c(=O)n1-c1ccccc1 [DUVELISIB] | > 30 | > 30 | > 30 | > 30 | > 30 | > 30 | > 30 | > 30 | > 30
12 | COC(=O)CCc1ccc(OCC(O)CNC(C)C)cc1 (stereo unspecified) [ESMOLOL] | > 30 | > 30 | > 30 | > 30 | > 30 | > 30 | > 30 | > 30 | > 30
13 | C[C@]12CCC(=O)C=C1CC[C@H]1[C@@H]3CC[C@](O)(C(=O)CO)[C@@]3(C)C[C@H](O)[C@@]12F [FLUDROCORTISONE] | > 30 | > 30 | > 10 | > 30 | > 30 | > 30 | > 10 | > 10 | > 10
14 | NCC1(CC(=O)O)CCCCC1 [GABAPENTIN] | > 30 | > 30 | > 30 | > 30 | > 30 | > 30 | > 30 | > 30 | > 30
15 | OCCOCCN1CCN(C(c2ccccc2)c2ccc(Cl)cc2)CC1 (stereo unspecified) [HYDROXYZINE] | > 30 | > 30 | > 10 | > 30 | > 30 | > 30 | 2.3 | > 10 | > 10
16 | O=C(c1ccccc1)c1ccc2n1CCC2C(=O)O (stereo unspecified) [KETOROLAC] | > 30 | > 10 | > 30 | > 10 | 0.0239 | > 30 | > 30 | > 30 | > 30
17 | Nc1nnc(-c2cccc(Cl)c2Cl)c(N)n1 [LAMOTRIGINE] | 2.1 | > 30 | > 10 | > 30 | > 30 | > 30 | > 10 | > 10 | > 10
18 | N[C@@H](Cc1cc(I)c(Oc2cc(I)c(O)c(I)c2)c(I)c1)C(=O)O [LEVOTHYROXINE] | > 30 | > 30 | > 30 | > 30 | > 30 | 1.8 | > 30 | > 30 | > 30
19 | CNC1(C)C2CCC(C2)C1(C)C (stereo unspecified) [MECAMYLAMINE] | > 30 | > 10 | > 10 | > 10 | > 10 | > 30 | > 10 | > 10 | > 10
